We go through 10 compounds from patent US5428051A, “Methods of combating pneumocystis carinii pneumonia and compounds useful therefor” (priority 1992, dated 1995).

For data set [1], the system named is Pneumocystis carinii. As to the kind of experiment: Treatment of Pneumocystis carinii pneumonia in rats: histologic scoring of lung cysts (GMS stain). The conditions noted are these: daily i.v., 14 days; for No. of animals with histologic score 0.5: 0.5 = less than 10 cysts per two sections; for No. of animals with histologic score 1: 1 = <10% of lung tissue involved; for No. of animals with histologic score 2: 2 = 10 to 25% of lung tissue involved; for No. of animals with histologic score 3: 3 = 26 to 50% of lung tissue involved; for No. of animals with histologic score 4: 4 = >50% of lung tissue involved; for Mean Histologic Score: score scale 0.5-4. It is filed as in vivo, Sprague-Dawley rats. Further details: key to Mean Histologic Score: lung cyst score: 0.5 = <10 cysts, 4 = >50% of lung tissue involved. Here is the method: (§1) Induction and Treatment of Pneumocystis carinii in Sprague-Dawley Rats
(§2) Male Sprague-Dawley rats, barrier raised, non-certified virus free, weighing 150-200 g were obtained from Hilltop Laboratories and housed individually. Animals were begun on a low (8%) protein diet (ICN Biomedicals, Cincinnati, Ohio) and drinking water containing tetracycline (0.5 mg/ml) and dexamethasone (1.0 μg/ml). This treatment was given for the next 8 weeks, monitoring fluid intake daily and weighing animals weekly. Dilutions of the drinking solution were made when animals consumed too much fluid so as to prevent cortisone poisoning. At the beginning of the sixth week animals were divided into groups of eight or more animals each and the test compounds were administered daily by i.v. injection into the tail vein at the indicated dose for the next 14 days or orally by gavage for the next 14 days.
All animals were sacrificed at the end of the eighth week by chloroform inhalation and the right lung was inflated in situ with 10% formalin and fixed for histologic examination. The fixed lung tissue was sectioned longitudinally and stained with Grocott's methenamine silver (GMS) stain which selectively stains the walls of th P. carinii cysts. Stained sections were coded and each section was scored by 2 examiners using a blinded protocol. Sections were read and scored according to modification of known procedures (P. Walzer et al., Antimicrob. Agents. Chemother. 32: 896-905 (1988)) as follows: 0.5=less than 10 cysts counted per two fully examinec sections; 1=scattered cysts with <10% of lung tissue involved; 2=scattered cysts with limited intense focal involvement and 10 to 25% of lung tissue involved; 3=scattered cysts with numerous intense areas of focal involvement and 26 to 50% of lung tissue involved; 4=cysts found throughout the tissue with numerous very intense focal areas of involvement having >50% of lung tissue involved.
The Chi square goodness of fit was used to calculate the p values of each test group when compared to the saline-treated and pentamidine-treated groups. The statistical analysis was carried out using the StatView 512+ software package (Brainpower, Inc., Calabasas, Calif.) on a Macintosh II computer.

Data set [2] relates to Pneumocystis carinii. As to the kind of experiment: Treatment of Pneumocystis carinii pneumonia in rats: cyst count in lung homogenate (cresyl violet). In kind it is in vivo, Sprague-Dawley rats. The settings on record: for response vs control in vivo at 10 mg/kg / response vs control in vivo at 5 mg/kg: Pneumocystis carinii, iv, 336 h, read-out: Cysts/g Lung (% of Control). The procedure:
as §1, §2
The left lung was weighed, ground through a #60 wire mesh, and suspended 1:10 (w/v) in Hank's balanced salts solution without cations (HBSS-) and 10 mM β-mercaptoethanol (β-Me). Slides were prepared by spotting 5 μl of lung homogenate diluted 1:10 in HBSS- with β-Me and allowed to air dry. The slides were stained with cresyl violet and the cysts were counted using a blinded protocol. The number of cysts/g of original lung tissue was calculated and the groups were reported as the percent of saline-treated controls.

The next data set relates to Giardia lamblia. As to the kind of experiment: In vitro activity against Giardia lamblia ([3H]-thymidine incorporation). In kind it is cell-based, strain WB (ATCC #30957). The settings on record: 42 hours, 37° C., read-out: IC50 ± S.D. In Vitro Antigiaridal Activity. The procedure:
In vitro Biological Activity of Bis-Benzimidazoles Against Giardia lamblia
In brief, Giardia lamblia, strain WB (ATCC #30957) was grown to early log phase in filter sterilized Keister's medium with 10% heat-inactivated fetal bovine serum and 50 μg/ml ampicillin and 50 μg/ml gentamicin sulfate. Assay medium was modified Keister's medium plus 5% heat-inactivated fetal bovine serum. The assay procedure was carried out in accordance with the following steps:
(1) (0 hours) Serial dilutions of diamidines suspended in assay medium were prepared in duplicate rows of a 96-well microtiter plate and 2.5×10^4 trophozoites were added to each well. Plates were placed in an anaerobic chamber, gassed with nitrogen, and incubated at 37° C.
(2) (24 hours) Added [methyl-^3 H]-thmidine (1-10 Ci/mmol) to yield 1.5-2 μCi/well.
(3) (42 hours) Harvested cells with multimash-type cell harvester onto glass microfiber paper. Washed and dried filters were counted using a scintillation counter to determine the incorporation of [^3 H]-thymidine.
(4) Data on uptake of [^3 H]-thymidine were fitted to a logistic-logarithmic concentration response function by a non-linear regression method and drug concentrations required to inhibit 50% incorporation of [^3 H]-thymidine were determined.

Data set [3] can be described thus: Toxicity of the test compounds in rats (graded by local, clinical and histologic criteria). The conditions noted are these: for Toxicity: 10.0 mg/kg, daily i.v., 14 days. It is filed as in vivo, Sprague-Dawley rats. The procedure: as §2
Data set [4] deals with Pneumocystis carinii. As to the kind of experiment: Anti-PCP activity in rats. It is filed as in vivo, Sprague-Dawley rats.
For data set [5] the following is noted: patients, intramuscular and intravenous routes; cited from earlier work.
[6] abbreviates: 10.0 mg/kg, daily i.v., 14 days, vs. saline-treated controls.
Setting [7] is: daily i.v., 14 days, vs. saline-treated controls.

The IC50 is the concentration that gives 50% inhibition.

Where two headings read alike, the source gives them in different places.

Take `N=C(N)c1ccc(OCCCCCOc2ccc(C(=N)N)cc2)cc1` [Pentamidine, reference compound]: in the data set with Pneumocystis carinii [1] (10.0 mg/kg), the “No. of animals with histologic score 0.5” value worked out at 12 animals, the “No. of animals with histologic score 1” value was found to be 38 animals, the “No. of animals with histologic score 2” value was found to be 17 animals and the “No. of animals with histologic score 3” value came to 4 animals. Besides, the “No. of animals with histologic score 4” value with Pneumocystis carinii [1] (10.0 mg/kg) amounted to 0 animals. Besides, in the data set with Pneumocystis carinii [2], the response vs control in vivo at 10 mg/kg stood at 3.13%.

Regarding `N=C(N)c1ccc2nc(CCCc3nc4ccc(C(=N)N)cc4[nH]3)[nH]c2c1` [Compound 5, 1,3-bis[5-amidino-2-benzimidazolyl]propane], the half-maximal inhibitory concentration (IC50) in the data set with Giardia lamblia (Giardia duodenalis) is 32.5 ± 6.4 µM. For the same compound, in the data set on Pneumocystis carinii [1] (10.0 mg/kg), the “No. of animals with histologic score 0.5” value worked out at 0 animals, the “No. of animals with histologic score 1” value turned out to be 1 animals, the “No. of animals with histologic score 2” value was 1 animals and the “No. of animals with histologic score 3” value is given as 7 animals. Further, in the data set with Pneumocystis carinii [1] (10.0 mg/kg), the “No. of animals with histologic score 4” value is 3 animals and the “Mean Histologic Score” value was 3.0. For the same compound, the response vs control in vivo at 10 mg/kg with Pneumocystis carinii [2] (setting [6]) amounted to 64.6%.

As to `N=C(N)c1ccc2nc(CCc3nc4ccc(C(=N)N)cc4[nH]3)[nH]c2c1` [Compound 3, 1,2-bis[5-amidino-2-benzimidazolyl]ethane], the 50% inhibitory concentration (IC50) in the data set with Giardia lamblia (Giardia duodenalis) was found to be 0.33 ± 0.15 µM. Moreover, in the data set with Pneumocystis carinii [1] (10.0 mg/kg), the “No. of animals with histologic score 0.5” value came out at 7 animals, the “No. of animals with histologic score 1” value came to 3 animals, the “No. of animals with histologic score 2” value is 0 animals and the “No. of animals with histologic score 3” value came out at 0 animals. In the data set on Pneumocystis carinii [1] (10.0 mg/kg), the “No. of animals with histologic score 4” value stood at 0 animals and the “Mean Histologic Score” value is recorded as 0.7. Moreover, in the data set with Pneumocystis carinii [2] (setting [6]), the response vs control in vivo at 10 mg/kg came out at 2.05%.

Regarding `N=C(N)c1ccc2nc(Cc3nc4ccc(C(=N)N)cc4[nH]3)[nH]c2c1` [Compound 1, bis[5-amidino-2-benzimidazolyl]methane], the IC50 with Giardia lamblia (Giardia duodenalis) is 307 ± 28.3 µM. Besides, in the data set with Pneumocystis carinii [1] (10.0 mg/kg), the “No. of animals with histologic score 0.5” value is recorded as 7 animals, the “No. of animals with histologic score 1” value came out at 1 animals, the “No. of animals with histologic score 2” value is recorded as 0 animals and the “No. of animals with histologic score 3” value turned out to be 0 animals. In addition, in the data set with Pneumocystis carinii [1] (10.0 mg/kg), the “No. of animals with histologic score 4” value is 0 animals and the “Mean Histologic Score” value was found to be 0.6. Also, in data set [3], the Toxicity turned out to be 0.

Turning to `N=C(N)c1ccc2nc(CCCCCCCCc3nc4ccc(C(=N)N)cc4[nH]3)[nH]c2c1` [Compound 9, 1,8-bis[5-amidino-2-benzimidazolyl]octane], the IC50 with Giardia lamblia (Giardia duodenalis) was determined as 0.04 ± 0.01 µM. Also, in the data set on Pneumocystis carinii [1] (5.0 mg/kg), the “No. of animals with histologic score 0.5” value was 1 animals, the “No. of animals with histologic score 1” value is given as 0 animals, the “No. of animals with histologic score 2” value turned out to be 8 animals and the “No. of animals with histologic score 3” value is reported as 3 animals. In addition, in the data set on Pneumocystis carinii [1] (5.0 mg/kg), the “No. of animals with histologic score 4” value worked out at 0 animals and the “Mean Histologic Score” value turned out to be 2.1. Also, in the data set with Pneumocystis carinii [2] (setting [7]), the response vs control in vivo at 5 mg/kg was determined as 31.8%.

With `c1cc2[nH]c(CCCCc3nc4cc(C5=NCCN5)ccc4[nH]3)nc2cc1C1=NCCN1` [Compound 8], the IC50 in the data set with Giardia lamblia (Giardia duodenalis) turned out to be 14.5 ± 3.5 µM. In the data set on Pneumocystis carinii [1] (10.0 mg/kg), the “No. of animals with histologic score 0.5” value is 12 animals, the “No. of animals with histologic score 1” value stood at 0 animals, the “No. of animals with histologic score 2” value is 0 animals and the “No. of animals with histologic score 3” value worked out at 0 animals. In addition, in the data set on Pneumocystis carinii [1] (10.0 mg/kg), the “No. of animals with histologic score 4” value is 0 animals and the “Mean Histologic Score” value was found to be 0.5. In addition, in data set [3] (vs. pentamidine (parent compound)), the “toxicity relative to the parent compound” value is recorded as “significantly less toxic than the parent compound”. For the same compound, the response vs control in vivo at 10 mg/kg in the data set with Pneumocystis carinii [2] (setting [6]) stood at 0.07%. Moreover, the “activity against PCP when administered orally” value in the data set on Pneumocystis carinii [4] (oral, daily dose of 25 mg/kg) is on record as “exhibited some activity against PCP”. In the data set with Pneumocystis carinii [4] (vs. pentamidine), the “potency as an anti-PCP agent relative to pentamidine” value was “over four times more potent”.

Consider `c1cc2[nH]c(CCCc3nc4cc(C5=NCCN5)ccc4[nH]3)nc2cc1C1=NCCN1` [Compound 6], for which the IC50 in the data set with Giardia lamblia (Giardia duodenalis) was 49.5 ± 7.8 µM. Besides, in the data set with Pneumocystis carinii [1] (10.0 mg/kg), the “No. of animals with histologic score 0.5” value is reported as 1 animals, the “No. of animals with histologic score 1” value is recorded as 7 animals, the “No. of animals with histologic score 2” value turned out to be 3 animals and the “No. of animals with histologic score 3” value came out at 1 animals. In the data set on Pneumocystis carinii [1] (10.0 mg/kg), the “No. of animals with histologic score 4” value worked out at 0 animals and the “Mean Histologic Score” value amounted to 1.4. Further, the response vs control in vivo at 10 mg/kg in the data set on Pneumocystis carinii [2] (setting [6]) turned out to be 9.23%.

For `N=C(N)c1ccc2nc(/C=C/c3nc4ccc(C(=N)N)cc4[nH]3)[nH]c2c1` [Compound 10, trans-1,2-bis[5-amidino-2-benzimidazolyl]ethene], in the data set with Pneumocystis carinii [1] (5.0 mg/kg), the “No. of animals with histologic score 0.5” value is given as 1 animals, the “No. of animals with histologic score 1” value turned out to be 5 animals, the “No. of animals with histologic score 2” value is 5 animals and the “No. of animals with histologic score 3” value is listed as 1 animals. Also, in the data set with Pneumocystis carinii [1] (5.0 mg/kg), the “No. of animals with histologic score 4” value turned out to be 0 animals and the “Mean Histologic Score” value amounted to 1.5. The response vs control in vivo at 5 mg/kg in the data set with Pneumocystis carinii [2] (setting [7]) stood at 2.14%.

Regarding “1,4-bis[5-amidino-2-benzimidazolyl]propane [Compound 7]”, the IC50 with Giardia lamblia is 8.15 ± 6.9 µM. In the data set with Pneumocystis carinii [1] (10.0 mg/kg), the “No. of animals with histologic score 0.5” value came out at 10 animals, the “No. of animals with histologic score 1” value came out at 2 animals, the “No. of animals with histologic score 2” value is 0 animals and the “No. of animals with histologic score 3” value worked out at 0 animals. In addition, in the data set with Pneumocystis carinii [1] (10.0 mg/kg), the “No. of animals with histologic score 4” value amounted to 0 animals and the “Mean Histologic Score” value stood at 0.6. The compound also registered a Toxicity in data set [3] of 0. Further, the “Cysts/g Lung (% of Control)” value in the data set on Pneumocystis carinii [2] (setting [6]) was 1.67 % of Control.

For `N=C(N)c1ccc(OCCCCCOc2ccc(C(=N)N)cc2)cc1` [pentamidine isethionate], the “side effects / fatalities” value in data set [5] was “Some fatalities have been attributed to severe hypotension, hypoglycemia, and cardiac arrhythmias”.
